In US9327005B1, “Compositions and methods for improved energy metabolism” (VDF FutureCeuticals, Inc., priority 2012, dated 2016):

Tested on: freshly isolated human peripheral blood cells
Assay: Seahorse oxygen consumption rate (OCR)
Assay type: cell-based
Conditions: average
Method: Testing was performed using Seahorse technology in order to measure real-time changes in oxygen consumption by freshly isolated human peripheral blood cells.
All results were generated on freshly isolated blood cells from different and randomly selected healthy and fasted donors. […] These two values were used as positive and negative controls, respectively, in order to ensure quality of test, viability and metabolic functionality of fresh human blood cells. Oligomycin inhibits oxygen metabolism. In presence of this substance, cells generate ATP/energy mainly via glycolysis. […] To ensure quality of human blood cells, blood was collected directly into Cell Preparation Tube with Sodium Citrate, Becton Dickinson Inc. Peripheral blood cells were isolated during 45 minutes following Protocol provided by Becton Dickinson. Blood cells were cultivated during each experiment in Seahorse media supplemented with 5 mM of glucose. Glucose concentration was adjusted from 11 mM to 5 mM to avoid testing of samples under hyperglycemic conditions (typically glucose at concentration lower than 95 mg/dl).
Cells were isolated from healthy fasted subject, and treated with apple extract at indicated dose. […] Rate 7, 8 and 14 represent time-points: 4, 8 and 32 minutes after the treatment, respectively.

CC[C@H]1/C=C/C=C/C[C@@H](C)[C@H](O)[C@@](C)(O)C(=O)[C@@H](C)[C@H](O)[C@@H](C)C(=O)[C@@H](C)[C@H](O)[C@@H](C)/C=C/C(=O)O[C@@H]2[C@H](C)[C@H](CC1)O[C@]1(CC[C@H](C)[C@H](C[C@@H](C)O)O1)[C@H]2C [oligomycin]
inhibition of OCR (negative control): 86%

N#CC(C#N)=NNc1ccc(OC(F)(F)F)cc1 [FCCP]
increase in OCR (positive control): 397%
